Patent US20240180880A1, “METHODS OF USING EHMT2 INHIBITORS IN TREATING OR PREVENTING BLOOD DISORDERS” (Epizyme, Inc., priority 2017, published 2024)

Columns and labels:
[1] = tested on: Human CD34+ progenitor cells; assay: Human CD34+ progenitors assay for fetal hemoglobin induction, % HbF+ cells by FACS (healthy donors); assay type: cell-based; conditions: for Observed Induction of % HbF + Human Erythroid Progenitors: evaluated in the context of cell viability; for % HbF+ cells: 26% basal level
Text: An in-vitro system to test the ability of compound to induce fetal hemoglobin expression was developed. This system used Human CD34+ progenitor cells freshly isolated from healthy donors blood collections. Peripheral blood mononuclear cells (PBMCs) were isolated from whole blood by density gradient centrifugation using SepMatem-50 and Lymphoprep™ from Stem Cell Technologies. CD34^+ hematopoietic progenitor cells (HSPCs) were isolated from PBMCs by magnetic separation using Stem Cells Technologies CD34+ positive selection/isolation kit (Stem Cell Technologies, #18056). CD34 cells were cultured using a 2-phase 14 day culture system. During phase 1 (day 0 to day 7) cells were expanded. Expansion was followed by phase 2 (day 7 to day 14) where cells were differentiated toward the erythroid lineage. Compounds were added on day 1 and day 7 as 1000× stock after being diluted in dimethyl sulfoxide (DMSO) in a 3-fold series. Final DMSO concentration in the assay was 0.1%. At day 14 cells were harvested for Fluorescent Activated Cell Sorting (FACS) analysis and for HbF quantitation by Mass spectrometry. For cell surface and intracellular marker analysis by FACS, cells were fixed and stained with a cocktail of antibodies covering erythroid lineage markers, HbF and H3 and H3K9me2 (Table 11). Data was collected using Canto II flow cytometer (BD Biosciences) and the FACSDiva software. Data was analyzed using FlowJo software. % HbF^+ cells and ratios H3/H3K9me2 intensities were calculated for CD71^+/CD235a^+ gated populations.
A list of pharmacological agents was evaluated for their potential to induce fetal Hemoglobin (HbF) in order to identify combination partners for our EHMT1/2 inhibitors. HbF can be induced by toxicity; therefore, the potential of the agents to induce HbF were evaluated in the context of cell viability. (Table 12). The EHMT1/2 inhibitor Compound 205 was evaluated in combination with a fixed dose of 10 μM Hydroxyurea and 0.1 μM Pomalidomide. […] 10 μM Hydroxyurea as a single agent was able to induce 01% HbF^+ cells from 26% basal level to 45% while 0.016 μM compound 205 as a single agent induced to 45%. In combination these two agents were able to induced % HbF^+ to 63% (FIG. 3A). […] 0.1 μM Pomalidomide as a single agent was able to induce ° % HbF cells from 26% basal level to 48% while 0.016 μM compound 205 as a single agent induced to 45%. In combination these two agents were able to induce % HbF^+ to 78% (FIG. 3B).
Hydroxyurea was also evaluated as single agent and in combination with the EHMT1/2 inhibitor compound 205 in a matrix format using CD34^+ cells isolated from a pool of 5 healthy donors. […] (FIG. 4 and FIG. 5, respectively). It is noted that for Loewe excess determination in Chalice, data was normalized to the highest and lowest Hbγ induction observed under the conditions and dose ranges in the assay.

[2] = tested on: human CD34+ progenitor cells isolated from SCD donors; assay: HbF pan-cellular induction by FACS in human CD34+ progenitor cells isolated from SCD donors; assay type: cell-based

Row | SMILES | Observed Induction of % HbF + Human Erythroid Progenitors [1] | further results
1 | Nc1ccccc1NC(=O)c1cnccn1 [BG-45] | Yes | –
2 | NC(CO)C(=O)NNCc1ccc(O)c(O)c1O (stereo not shown) [Benzerazide] | Very small | –
3 | CNc1cc(C)nc(Nc2ccc(OC)c(OC[C@H](O)CN3CCC3)c2)n1 [Compound D5R] | – | Fluorescence Intensity at which most of the positive cells are concentrated ([2]; 0.012 μM Compound D5R): ~10(3); % of HbF expressing cells ([2]; 0.012 μM Compound D5R, DMSO baseline 42.7%): 98.1%; % of HbF expressing cells ([2]; 10 μM Hydroxyurea in combination with 0.012 μM Compound D5R, DMSO baseline 42.7%): 99.8%; % HbF+ cells ([2]; Compound D5R dose response range (FIG. 6 ii-vi), DMSO baseline 42.7%): > 98%
4 | Clc1ccc2c(c1)CCc1cccnc1C2=C1CCNCC1 [Desloratidine, desloratidine] | No | –
5 | Nc1ccccc1NC(=O)c1ccc(CNC(=O)OCc2cccnc2)cc1 [Entinostat, entinostat] | Yes | –
6 | NC(=O)NO [Hydroxyurea, hydroxyurea, reference compound] | Yes | % HbF+ cells ([1]; 10 μM Hydroxyurea as a single agent): 45%; Fluorescence Intensity at which most of the positive cells are concentrated ([2]; 10 μM Hydroxyurea): ~10(4); % of HbF expressing cells ([2]; 10 μM Hydroxyurea, DMSO baseline 42.7%): 78.1%
7 | CN(C)C(=N)N=C(N)N [Metformin] | Yes | –
8 | Nc1cccc2c1C(=O)N(C1CCC(=O)NC1=O)C2=O (stereo not shown) [Pomalidomide, pomalidomide] | Yes | % HbF+ cells ([1]; 0.1 μM Pomalidomide as a single agent): 48%
9 | O=C(CCCCCCC(=O)Nc1ccccc1)NO [Vorinostat, vorinostat] | No | –
